Laboratory results reported in the supplement of paper PMC8149375.

Key:
Conditions in all cases: treatment: drug + dasatinib (fixed dose, not stated); 5 days
769-P [1] = assay: GI50 of drug in presence of dasatinib; higher = less potent
Method: (§1)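 Primary HTS combination arm: 8 RCC cell lines treated with 8 doses (up to 10 uM) of each library drug plus a fixed dose of dasatinib (dose not stated) for 5 days; viability read by CellTiter-Glo and normalised to DMSO. GI50 was fitted with XLfit, AUC is the area under the dose-response curve, and minimum viability is the lowest fraction of DMSO viability across doses.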

TK-10 [2] = assay: as above
Method: as §1

CAKI-1 [3] = assay: as above
Method: as §1

UO-31 [4] = assay: as above
Method: as §1

SN12C [5] = assay: as above
Method: as §1

786-O [6] = assay: as above
Method: as §1

A498 [7] = assay: as above
Method: as §1

ACHN [8] = assay: as above
Method: as §1

769-P [9] = assay: AUC of dose-response viability curve, drug + dasatinib, normalised to DMSO (arbitrary (AUC of normalised viability)); higher = less growth inhibition
Method: as §1

TK-10 [10] = assay: as above
Method: as §1

CAKI-1 [11] = assay: as above
Method: as §1

UO-31 [12] = assay: as above
Method: as §1

SN12C [13] = assay: as above
Method: as §1

786-O [14] = assay: as above
Method: as §1

A498 [15] = assay: as above
Method: as §1

ACHN [16] = assay: as above
Method: as §1

769-P [17] = assay: minimum viability across doses, drug + dasatinib, relative to DMSO (fraction); higher = less growth inhibition
Method: as §1

TK-10 [18] = assay: as above
Method: as §1

CAKI-1 [19] = assay: as above
Method: as §1

UO-31 [20] = assay: as above
Method: as §1

SN12C [21] = assay: as above
Method: as §1

786-O [22] = assay: as above
Method: as §1

A498 [23] = assay: as above
Method: as §1

ACHN [24] = assay: as above
Method: as §1

| Structure (SMILES) | GI50 of drug (786-O [6]) [nM] | GI50 of drug (ACHN [8]) [nM] | GI50 of drug (769-P [1]) [nM] | GI50 of drug (TK-10 [2]) [nM] | GI50 of drug (CAKI-1 [3]) [nM] | GI50 of drug (UO-31 [4]) [nM] | GI50 of drug (SN12C [5]) [nM] | GI50 of drug (A498 [7]) [nM] | AUC of dose-response viability curve (769-P [9]) | AUC of dose-response viability curve (TK-10 [10]) | AUC of dose-response viability curve (CAKI-1 [11]) | AUC of dose-response viability curve (UO-31 [12]) | AUC of dose-response viability curve (SN12C [13]) | AUC of dose-response viability curve (786-O [14]) | AUC of dose-response viability curve (A498 [15]) | AUC of dose-response viability curve (ACHN [16]) | minimum viability across doses (769-P [17]) | minimum viability across doses (TK-10 [18]) | minimum viability across doses (CAKI-1 [19]) | minimum viability across doses (UO-31 [20]) | minimum viability across doses (SN12C [21]) | minimum viability across doses (786-O [22]) | minimum viability across doses (A498 [23]) | minimum viability across doses (ACHN [24]) |
| --- | --- | --- | --- | --- | --- | --- | --- | --- | --- | --- | --- | --- | --- | --- | --- | --- | --- | --- | --- | --- | --- | --- | --- | --- |
| COc1cc(OC)c(/C=C/S(=O)(=O)Cc2ccc(OC)c(NCC(=O)[O][Na])c2)c(OC)c1 + Cc1nc(Nc2ncc(C(=O)Nc3c(C)cccc3Cl)s2)cc(N2CCN(CCO)CC2)n1 [dasatinib] | 18.1 | 27.9 | 31.6 | 148 | 15.7 | 58.6 | 163 | 78.6 | 1.04 | 1.79 | 0.99 | 1.28 | 1.67 | 0.766 | 1.71 | 1.18 | 0.0648 | 0.292 | 0.0849 | 0.00998 | 0.184 | 0.0033 | 0.138 | 0.088 |
| COc1cc2ncnc(Nc3cccc(Br)c3)c2cc1OC.Cl + Cc1nc(Nc2ncc(C(=O)Nc3c(C)cccc3Cl)s2)cc(N2CCN(CCO)CC2)n1 [dasatinib] | 2860 | 5.77 | 111 | 884 | 2490 | 8520 | > 10000 | > 10000 | 1.69 | 2.19 | 2.22 | 2.94 | 2.32 | 2.14 | 3.5 | 1.18 | 0.157 | 0.124 | 0.237 | 0.0122 | 0.547 | 0.0127 | 0.835 | 0.181 |
| O=C(NOCC(O)CO)c1cc(Br)c(F)c(F)c1Nc1ccc(I)cc1F (stereo unspecified) + Cc1nc(Nc2ncc(C(=O)Nc3c(C)cccc3Cl)s2)cc(N2CCN(CCO)CC2)n1 [dasatinib] | 149 | 26.5 | 800 | 2540 | 680 | 1690 | 1220 | 1560 | 2.06 | 2.23 | 1.91 | 2.59 | 2.1 | 1.75 | 2.39 | 1.45 | 0.278 | 0.404 | 0.133 | 0.164 | 0.357 | 0.327 | 0.344 | 0.279 |
| O=C(NOC[C@H](O)CO)c1ccc(F)c(F)c1Nc1ccc(I)cc1F + Cc1nc(Nc2ncc(C(=O)Nc3c(C)cccc3Cl)s2)cc(N2CCN(CCO)CC2)n1 [dasatinib] | 266 | 13.5 | 74.4 | 335 | 148 | 141 | 233 | 259 | 1.42 | 1.91 | 1.51 | 1.6 | 1.75 | 1.85 | 1.85 | 1.36 | 0.173 | 0.296 | 0.0721 | 0.0632 | 0.308 | 0.377 | 0.302 | 0.3 |
| COc1cccc(-c2cc(=O)c3ccccc3o2)c1N + Cc1nc(Nc2ncc(C(=O)Nc3c(C)cccc3Cl)s2)cc(N2CCN(CCO)CC2)n1 [dasatinib] | > 10000 | > 10000 | > 10000 | > 10000 | > 10000 | > 10000 | > 10000 | > 10000 | 2.48 | 2.57 | 2.27 | 3.99 | 2.49 | 2.58 | 3.37 | 2.01 | 0.645 | 0.655 | 0.612 | 1.08 | 0.658 | 0.541 | 0.908 | 0.511 |
| CN1CCN(c2ccc([N+](=O)[O-])c3no[n+]([O-])c23)CC1 + Cc1nc(Nc2ncc(C(=O)Nc3c(C)cccc3Cl)s2)cc(N2CCN(CCO)CC2)n1 [dasatinib] | > 10000 | > 10000 | > 10000 | > 10000 | > 10000 | > 10000 | > 10000 | > 10000 | 2.12 | 2.41 | 2.27 | 3.44 | 2.52 | 2.2 | 3.19 | 2.07 | 0.644 | 0.64 | 0.624 | 0.864 | 0.687 | 0.517 | 0.862 | 0.539 |
| CC(=O)c1c(C)c2cnc(Nc3ccc(N4CCNCC4)cn3)nc2n(C2CCCC2)c1=O.Cl + Cc1nc(Nc2ncc(C(=O)Nc3c(C)cccc3Cl)s2)cc(N2CCN(CCO)CC2)n1 [dasatinib] | 174 | 19 | 231 | 523 | 179 | 1530 | 1190 | > 10000 | 1.8 | 2.06 | 1.71 | 2.58 | 2.1 | 1.87 | 2.92 | 1.32 | 0.0419 | 0.186 | 0.0887 | 0.166 | 0.368 | 0.174 | 0.566 | 0.0923 |
| CCN(CC)CCCCNc1ncc2cc(-c3cc(OC)cc(OC)c3)c(NC(=O)NC(C)(C)C)nc2n1 + Cc1nc(Nc2ncc(C(=O)Nc3c(C)cccc3Cl)s2)cc(N2CCN(CCO)CC2)n1 [dasatinib] | 1210 | 19.8 | 1820 | 1390 | 80.1 | 696 | 366 | 3570 | 2.13 | 2.18 | 1.31 | 2.28 | 1.9 | 2.02 | 2.67 | 1.28 | 0.207 | 0.258 | 0.0229 | 0.0119 | 0.0905 | 0.00578 | 0.139 | 0.042 |

Further lines, with some results ahead:

| GI50 of drug (786-O [6]) [nM] | GI50 of drug (ACHN [8]) [nM] | Structure (SMILES) | GI50 of drug (769-P [1]) [nM] | GI50 of drug (TK-10 [2]) [nM] | GI50 of drug (CAKI-1 [3]) [nM] | GI50 of drug (UO-31 [4]) [nM] | GI50 of drug (SN12C [5]) [nM] | GI50 of drug (A498 [7]) [nM] | AUC of dose-response viability curve (769-P [9]) | AUC of dose-response viability curve (TK-10 [10]) | AUC of dose-response viability curve (CAKI-1 [11]) | AUC of dose-response viability curve (UO-31 [12]) | AUC of dose-response viability curve (SN12C [13]) | AUC of dose-response viability curve (786-O [14]) | AUC of dose-response viability curve (A498 [15]) | AUC of dose-response viability curve (ACHN [16]) | minimum viability across doses (769-P [17]) | minimum viability across doses (TK-10 [18]) | minimum viability across doses (CAKI-1 [19]) | minimum viability across doses (UO-31 [20]) | minimum viability across doses (SN12C [21]) | minimum viability across doses (786-O [22]) | minimum viability across doses (A498 [23]) | minimum viability across doses (ACHN [24]) |
| --- | --- | --- | --- | --- | --- | --- | --- | --- | --- | --- | --- | --- | --- | --- | --- | --- | --- | --- | --- | --- | --- | --- | --- | --- |
| 2090 | 999 | c1ccc2c(-c3cnn4cc(-c5ccc(N6CCNCC6)cc5)cnc34)ccnc2c1 + Cc1nc(Nc2ncc(C(=O)Nc3c(C)cccc3Cl)s2)cc(N2CCN(CCO)CC2)n1 [dasatinib] | 1340 | 3060 | 1790 | 3050 | 1580 | 3180 | 2.03 | 2.51 | 2.19 | 3.73 | 2.19 | 2.41 | 3.1 | 1.77 | 0.00161 | 0.00532 | 0.00191 | 0.00301 | 0.00173 | 0.00229 | 0.00332 | 0.0011 |
| 222 | 96.6 | CN(c1ncccc1CNc1nc(Nc2ccc3c(c2)CC(=O)N3)ncc1C(F)(F)F)S(C)(=O)=O.O=S(=O)(O)c1ccccc1 + Cc1nc(Nc2ncc(C(=O)Nc3c(C)cccc3Cl)s2)cc(N2CCN(CCO)CC2)n1 [dasatinib] | 1560 | 3290 | 966 | 3010 | 4150 | 3510 | 1.93 | 2.28 | 1.98 | 3.91 | 2.16 | 1.6 | 3.75 | 1.66 | 0.0401 | 0.15 | 0.039 | 0.0198 | 0.012 | 0.00638 | 0.015 | 0.0114 |
| 1060 | 729 | NCC(=O)Nc1ccc(-n2nc(C(F)(F)F)cc2-c2ccc3c(ccc4ccccc43)c2)cc1 + Cc1nc(Nc2ncc(C(=O)Nc3c(C)cccc3Cl)s2)cc(N2CCN(CCO)CC2)n1 [dasatinib] | 2650 | 2750 | 3650 | 2580 | 4510 | 2100 | 2.22 | 2.41 | 2.5 | 2.72 | 2.31 | 1.94 | 2.71 | 1.81 | 0.0325 | 0.177 | 0.00695 | 0.0147 | 0.00289 | 0.00632 | 0.0159 | 0.0394 |
| 763 | 1800 | O=c1cc(N2CCOCC2)oc2c(-c3cccc4c3sc3ccccc34)cccc12 + Cc1nc(Nc2ncc(C(=O)Nc3c(C)cccc3Cl)s2)cc(N2CCN(CCO)CC2)n1 [dasatinib] | 3090 | 4630 | 847 | 2850 | > 10000 | 8330 | 2.36 | 2.52 | 1.96 | 3.36 | 2.38 | 1.89 | 3.4 | 2.09 | 0.225 | 0.289 | 0.112 | 0.0435 | 0.401 | 0.0139 | 0.442 | 0.139 |
| 262 | 436 | Cc1cc(Nc2cc(CN3CCOCC3)c3nc(C)c(Cc4ccc(Cl)cc4F)n3n2)[nH]n1 + Cc1nc(Nc2ncc(C(=O)Nc3c(C)cccc3Cl)s2)cc(N2CCN(CCO)CC2)n1 [dasatinib] | 1620 | 1950 | 410 | 2610 | 1340 | 4200 | 2.24 | 2.43 | 1.73 | 3.83 | 2.1 | 1.65 | 3.43 | 1.75 | 0.0393 | 0.0211 | 0.00448 | 0.0199 | 0.105 | 0.00749 | 0.194 | 0.0702 |
| > 10000 | 24.9 | CC(C)(C)Cn1c(N)nc2ccc(-c3[nH]c(C(C)(C)C)nc3-c3ccc(F)cc3)nc21.CS(=O)(=O)O.CS(=O)(=O)O + Cc1nc(Nc2ncc(C(=O)Nc3c(C)cccc3Cl)s2)cc(N2CCN(CCO)CC2)n1 [dasatinib] | 1760 | 5500 | 4370 | > 10000 | > 10000 | > 10000 | 2.07 | 2.23 | 2.18 | 3.24 | 2.36 | 2.48 | 3.68 | 1.45 | 0.255 | 0.447 | 0.435 | 0.508 | 0.54 | 0.617 | 0.949 | 0.244 |
